A word on the IC50: it is the concentration needed to halve the response being measured. Higher therefore signals a need for much substance. Broadly, the AUC(0-t) is exposure summed from dosing to a finite time, without extrapolation to infinity. What is called Cmax is the maximum level reached in the sampled fluid or tissue.

The subject of series [1] is HCT 116 MTAP wild-type cells. Briefly: Human colon cancer HCT116 cell proliferation inhibition test (MTAP wild-type cells, CellTiter-Glo, 6 days). In kind it is cell-based. The following applies: HCT-116, 144 h. The procedure:
(§1) • 1. HCT 116 MTAP knockout and MTAP wild-type cells were plated in 96-well flat bottom 5 plates, and cultured overnight with McCoy's 5A medium containing […]+1% penicillin-streptomycin at 37° C. and 5% CO2. • 2. On the next day, the compound was dissolved with DMSO, diluted with DMSO and medium successively and transferred to the cell plate. The final concentration of the compound was 10 μM, the compound was diluted 4 times, with 9 concentration gradients, and DMSO control was added. • 3. Cells that have not been treated with the compound were removed. CellTiter-Glo Luminescent Cell Viability Assay (Promega) was used to detect cell viability, the operation was performed with reference to the package insert of the kit, and then the cell plate was placed on EnVision Multilabel Reader to detect the cold light signal. • 4. Meanwhile, the cell plate treated with the compound was cultured at 37° C. and 5% CO2 for 6 consecutive days. • 5. Then, CellTiter-Glo was also used to detect cell viability. • 6. Finally, the four-parameter dose-response curve module of GraphPad Prism v 9.2.0 software was used to plot the dose-response curve and calculate the IC50 for proliferation inhibition (unit: nM).
On the technique in general: Cellular ATP, detected with luciferase, serves as a proxy for viable cell number.

Series [2] has as its system HCT 116 MTAP knockout cells. Briefly: Human colon cancer HCT116 cell proliferation inhibition test (MTAP knockout cells, CellTiter-Glo, 6 days). In kind it is cell-based. The procedure:
as §1

Series [3] is described as follows: Pharmacokinetic assay in mice, single oral administration. Type of series: in vivo. The following applies: male, mouse, ICR mice, 10 mg/kg, plasma. How it is done: The purpose of this trial is to study the pharmacokinetic behavior of some compounds of the present invention, and the administration method is: Single oral administration (PO) to ICR mice:
ICR mice male N=3 original source: Shanghai Sippr-Bk Lab Animal Co., Ltd.
The compounds were weighed and dissolved in 20% PG+10% Solutol HS15+70% pH 3 citrate buffer, respectively, shaken well and sonicated to prepare colorless clear solutions or suspensions. Nine mice were administered orally at a dose of 10 mg/kg after an overnight fast.
About 90 μL of blood was collected via the submandibular vein per time point, heparin sodium anticoagulant was added, the sample was placed on ice after collection, and plasma was centrifuged within 1 hour (centrifugation conditions: 8,000 rpm, 6 minutes, 2-8° C.). The blood collection time points were 0, 0.25, 0.5, 1, 2, 4, 6, 8 and 24 h. The samples were stored in a refrigerator at −20° C.
The plasma sample was 40 μL, 160 μL of ice-cold acetonitrile containing internal standard was added, vortexed for 3 minutes, and centrifuged at 11,000 rpm for 5 minutes. 100 μL of the supernatant was taken and added to 100 μL of water, 5 μL of the sample was taken and injected into LC/MS/MS for analysis (see the table below for the results).
PK Results for Single Oral Administration (PO) of 10 mg/kg of Compounds to Mice

Series [4] can be described thus: Liver microsomal stability experiment. In kind it is in vitro ADME. The following applies: pH 7.4; human liver microsomes, NADPH, 37° C., 0-45 min; read-out: Human Liver Microsome Stability Half-Life T1/2. How it is done: Buffer solution A: 1.0 L of 0.1 M potassium dihydrogen phosphate buffer solution (containing 1.0 mM EDTA);
Buffer solution B: 1.0 L of 0.1 M dipotassium phosphate buffer solution (containing 1.0 mM EDTA);
Buffer solution C: Buffer solution A was added to 700 mL of buffer solution B. The addition was stopped when pH reached 7.4.
The selected compounds of the examples and reference standards were dissolved in DMSO to prepare a stock solution of 10 mM.
• 500 μM solution: 10 μL of 10 mM stock solution was added to 190 μL of ACN; • 1.5 μM dosing solution (dissolved in liver microsome solution, human liver microsomes were purchased from Xenotech): 18.75 μL of 20 mg/mL liver microsomes was added to 479.75 μL of buffer solution C, then 1.5 μL of 500 μM solution was added and mixed well with gentle shaking.
NADPH was weighted, then an appropriate amount of buffer solution C was added to prepare a 6 mM of NADPH solution.
• 1. 30 μL of 1.5 μM dosing solution was added to the wells set to different time points (0 min, 5 min, 15 min, 30 min and 45 min) on a 96-well plate. 2 replicates were made. • 2. Preparation of the 0-min sample: 135 μL of ACN (containing internal standard) was first added to the 0-min well, and 15 μL of 6 mM NADPH solution was added. • 3. A 96-well plate containing 1.5 μM of dosing solution and NADPH solution were pre-warmed in a 37° C. water bath for 5 minutes. • 4. Pre-warmed 15 μL of 6 mM NADPH solution was added to the wells set to 5 min, 15 min, 30 min and 45 min, the reaction was started and the timing was started. • 5. […] The solution was vortexed for 10 minutes, and the sample was centrifuged on a centrifuge at 5594×g for 15 minutes. • 6. 50 μL of supernatant was taken from the centrifuged sample, transferred to a 96-well sample plate that has been added with 50 μL of water, mixed, and finally sent to LC-MS/MS for analysis. The half-life was calculated based on the test results.

Read-outs that look alike come from different tables or passages of the source.

In series [1], `Cn1ncc(-c2cc(C#N)c3c(=O)[nH]nc(CN)c3c2)c1-c1c(F)cc2ccccc2c1C#N` [Example 1, 1-(aminomethyl)-7-(5-(1-cyano-3-fluoronaphthalen-2-yl)-1-methyl-1H-pyrazol-4-yl)-4-oxo-3,4-dihydrophthalazine-5-carbonitrile] had a concentration for half-maximal inhibition (IC50) of 2360 nM. Besides, in series [2], the midpoint of inhibition, the IC50, lay at 29 nM. In series [3], this compound had an area under the curve AUC(0-t) of 2530 ng·h/mL, a Cmax of 1750 ng/mL and a half-life of 1.2 h. Moreover, the half-life at 1 µM in series [4] came to 3.37 h.
For `C#Cc1cc(-c2cnn(C)c2-c2c(F)cc3ccccc3c2C#N)cc2c(CN)n[nH]c(=O)c12` [Example 2, 2-(4-(4-(aminomethyl)-8-ethynyl-1-oxo-1,2-dihydrophthalazin-6-yl)-1-methyl-1H-pyrazol-5-yl)-3-fluoro-1-naphthalenenitrile], the IC50 in series [2] (Homo sapiens, HCT-116, 144 h) was found to be 9 nM. In series [3], this compound had an area under the curve AUC(0-t) of 1440 ng·h/mL, a maximum concentration (Cmax) of 378 ng/mL and a half-life of 4 h. Moreover, the half-life at 1 µM in series [4] was 0.717 h.
In series [2] (Homo sapiens, HCT-116, 144 h), `Cn1ncc(-c2cc(C#N)c3c(=O)[nH]nc(CN)c3c2)c1-c1c(F)c(Cl)cc(OC2CC2)c1C#N` [Example 6, 1-(aminomethyl)-7-(5-(3-chloro-6-cyano-5-cyclopropoxy-2-fluorophenyl)-1-methyl-1H-pyrazol-4-yl)-4-oxo-3,4-dihydrophthalazine-5-carbonitrile] gave a half-inhibitory concentration (IC50) of 70 nM. Also, in series [3], the AUC(0-t) was found to be 2900 ng·h/mL, the maximum concentration (Cmax) was 973 ng/mL and the half-life was 5.1 h. In addition, the half-life at 1 µM in series [4] amounted to 2.05 h.
On the same counts, the results for `Cn1ncc(-c2cc(C3CC3)c3c(=O)[nH]nc(CN)c3c2)c1-c1c(F)c(Cl)cc(OC2CC2)c1C#N` [Example 8, 2-(4-(4-(aminomethyl)-8-cyclopropyl-1-oxo-1,2-dihydrophthalazin-6-yl)-1-methyl-1H-pyrazol-5-yl)-4-chloro-6-cyclopropoxy-3-fluorobenzonitrile] are 18 nM, 2710 ng·h/mL, 576 ng/mL, 3.2 h and 0.867 h.
For `Cn1ncc(-c2cc(C#N)c3c(=O)[nH]nc(CN)c3c2)c1-c1c(F)c(Cl)cc(N2CCCC2)c1C#N` [Example 9, 1-(aminomethyl)-7-(5-(3-chloro-6-cyano-2-fluoro-5-(pyrrolidin-1-yl)phenyl)-1-methyl-1H-pyrazol-4-yl)-4-oxo-3,4-dihydrophthalazine-5-carbonitrile] the same measures were 58 nM, 2230 ng·h/mL, 844 ng/mL, 6.9 h and 0.633 h.
For the compound `Cn1ncc(-c2ccc3c(=O)[nH]nc(CN)c3c2)c1-c1c(F)c(Cl)cc(N2CCCC2)c1C#N` [Example 28, 2-(4-(4-(aminomethyl)-1-oxo-1,2-dihydrophthalazin-6-yl)-1-methyl-1H-pyrazol-5-yl)-4-chloro-3-fluoro-6-(pyrrolidin-1-yl)benzonitrile], in series [1], 761 nM corresponded to half-maximal inhibition (IC50). Besides, the 50% inhibitory concentration (IC50) in series [2] (Homo sapiens, HCT-116, 144 h) came to 17 nM. In addition, in series [3], the AUC(0-t) was determined as 2980 ng·h/mL, the Cmax was determined as 810 ng/mL and the half-life is 5 h. Besides, the half-life at 1 µM in series [4] amounted to 0.45 h.
`Cn1ncc(-c2ccc3c(=O)[nH]nc(CN)c3c2)c1-c1c(F)c(Cl)cc(OC2CC2)c1C#N` [MRTX-1979, reference compound] showed an IC50 in series [1] of 1610 nM. The same compound registered a half-maximal inhibitory concentration (IC50) in series [2] (Homo sapiens, HCT-116, 144 h) of 53 nM. In series [3], this compound gave an exposure AUC(0-t) of 973 ng·h/mL, a Cmax of 266 ng/mL and a half-life of 1.3 h. For the same compound, the half-life at 1 µM in series [4] was found to be 0.333 h.
